Where “and” joins values, the source holds several entries; their conditions need not be identical. Equal entries are not always repeated. Where two headings read alike, the source gives them in different places.
Tests used:
[1] = target: T1, dDATfc (Drosophila melanogaster dopamine transporter functional construct) (Drosophila melanogaster, UniProt Q7K4Y6, DEL164-191/F471L/L415A/V74A); experiment: cell-based; conditions: for inhibition at 10 µM: Log[compound] M = -5
T1 construct: expressed in transfected cells; host or cells: HEK293S GnTI- cells, transient transfection with pEG-BacMam plasmid
Description: (§1) Additional mutations in the subsite B or subsite C were incorporated into this gene used for carrying out the uptake assays.
(§2) Cells were transiently transfected with pEG-BacMam plasmid harboring the dDAT cGFP gene and incubated for 35–40 hrs at 37 °C with 5% CO2 and 80% humidity. […] The transport activity was arrested with 0.5 ml of pre-chilled assay buffer containing 100 μM desipramine (Sigma Aldrich) added to each reaction. The cells were then washed twice with the same buffer before solubilizing them in 0.1 ml of 20 mM DDM for one hour at room temperature. […] Following this, 0.1 ml of the supernatant was added to 0.5 ml of scintillation fluid (Ultima Gold, Perkin Elmer) and the radioactivity was estimated on MicroBeta scintillation counter (Perkin Elmer). […] The background-subtracted, dose–response plots were analyzed using GraphPad Prism v.5.0.1 and Ki values were determined from Cheng–Prusoff’s equation using the IC50 values obtained from the experiments.

hNET [2] = conditions: read-out: KM of transport by hNET; cited from earlier work
hDAT [3] = conditions: read-out: KM of transport by hDAT; cited from earlier work
dDATNET = target: T2, dDATNET (Drosophila melanogaster, UniProt Q7K4Y6, D121G/DEL162-202/F471L/L415A/S426M/V74A); experiment: biochemical; type: binding
T2 construct: GFP-8x-His (C); made in house; host or cells: HEK293S GnTI- cells, BacMam baculovirus transduction
Description: (§3) Binding assays were performed with 20 nM of purified dDAT protein by scintillation proximity assay. For determining nisoxetine Kd, [^3H] Nisoxetine (Perkin Elmer) (in 1:5 molar ratio) was used in the range of 0.1 nM to 500 nM with 100 µM desipramine added to the control samples. Competition assays were done with 50 nM [^3H] […] The assays were done in 1 mM DDM, 0.2 mM CHS, 20 mM Tris-Cl (pH 8), 300 mM NaCl and 5% glycerol. The background values were subtracted to plot the final curves in GraphPad prism v5.0.1 and the Kd values were calculated. The IC50 values obtained from binding competition assays were used to deduce the Ki values by Cheng–Prusoff’s equation.

dDATfc A117S/A428S = target: T3, dDATfc A117S/A428S (Drosophila melanogaster, UniProt Q7K4Y6, A117S/A428S/DEL164-191/F471L/L415A/V74A); experiment: cell-based; type: cell-based
T3 construct: expressed in transfected cells; host or cells: HEK293S GnTI- cells, transient transfection with pEG-BacMam plasmid
Description: (§4) Earlier studies have posited that non-conserved residues in the primary binding site are responsible for selective inhibition of biogenic amine uptake[57],[58]. […] Effects of these mutations were analyzed through uptake inhibition using the three SNRIs employed in this study (Fig. 6a–c). […] Supplementary Table 2)[56],[59].
as §1, §2

hDAT [4] = conditions: read-out: Uptake Inhibition Ki, hDAT; ref 3 (Supplementary: Bymaster et al., 2003); cited from earlier work
dDATfc A117S = target: T4, dDATfc A117S (Drosophila melanogaster, UniProt Q7K4Y6, A117S/DEL164-191/F471L/L415A/V74A); experiment: cell-based
T4 construct: expressed in transfected cells; host or cells: HEK293S GnTI- cells, transient transfection with pEG-BacMam plasmid
Description: as §4, §1, §2

dDATfc A428S = target: T5, dDATfc A428S (Drosophila melanogaster, UniProt Q7K4Y6, A428S/DEL164-191/F471L/L415A/V74A); experiment: cell-based
T5 construct: expressed in transfected cells; host or cells: HEK293S GnTI- cells, transient transfection with pEG-BacMam plasmid
Description: as §4, §1, §2

hDAT [5] = target: hDAT; set-up: method as in earlier work; conditions: vs. RTI-55; ref 4 (Supplementary: Vaishnavi et al., 2004); read-out: Binding Inhibition (Ki), hDAT; cited from earlier work
dDATmfc = target: T6, dDATmfc (Drosophila melanogaster, UniProt Q7K4Y6, DEL162-202/F471L/L415A/V74A); experiment: biochemical; conditions: read-out: Percent binding
T6 construct: GFP-8x-His (C); made in house; host or cells: HEK293S GnTI- cells, BacMam baculovirus transduction
Description: as §3

hNET [6] = conditions: cited from earlier work
[7] = HEK293S, 0.5 h, read-out: Percent inhibition of DA uptake, dDATfc, single replicates
[8] = HEK293S, 0.5 h, read-out: Percent inhibition of DA uptake
[9] = 0.5 h, read-out: Percent inhibition of DA uptake

Work on `NCCc1ccc(O)c(O)c1` [DA, dopamine] yielded an inhibition at 30 µM ([1]; HEK293S, 0.5 h, read-out: Percent inhibition of DA uptake, dDATfc, Log[compound] M = -4.52288, single replicates) of 8.62%, an inhibition at 10 µM [1, 7] of 20% and an inhibition at 3 µM ([1]; HEK293S, 0.5 h, read-out: Percent inhibition of DA uptake, dDATfc, Log[compound] M = -5.52288, single replicates) of 56.5%. The inhibition at 0.1 µM ([1]; HEK293S, 0.5 h, read-out: Percent inhibition of DA uptake, dDATfc, Log[compound] M = -7, single replicates) was 91.1%, the inhibition at 0.03 µM ([1]; HEK293S, 0.5 h, read-out: Percent inhibition of DA uptake, dDATfc, Log[compound] M = -7.52288, single replicates) was 92.7% and the Km (hNET [2]) was 0.67 µM. The Km (hDAT [3]) was 2.54 µM.

In the case of `CNCC[C@H](Oc1cccc2ccccc12)c1cccs1` [Dulox], the remaining activity at 0.03 µM (dDATNET; read-out: Percent binding) is reported as 86.3%, the remaining activity at 0.1 µM (dDATNET; read-out: Percent binding) is reported as 57.8% and the remaining activity at 0.3 µM (dDATNET; read-out: Percent binding) is reported as 34.1%. The remaining activity at 1 µM (dDATNET; read-out: Percent binding) was 18.4%.

In the case of `NCC(O)c1ccc(O)c(O)c1` [NE, L-norepinephrine], the inhibition at 3000 µM ([1]; HEK293S, 0.5 h, read-out: Percent inhibition of DA uptake, dDATfc, Log[compound] M = -2.52288, single replicates) is reported as 2.69%, the inhibition at 100 µM ([1]; HEK293S, 0.5 h, read-out: Percent inhibition of DA uptake, dDATfc, Log[compound] M = -4, single replicates) is reported as 29.3% and the inhibition at 10 µM [1, 7] is reported as 64.5%. The inhibition at 1 µM ([1]; HEK293S, 0.5 h, read-out: Percent inhibition of DA uptake, dDATfc, Log[compound] M = -6, single replicates) was 92.2%, the Ki ([1]; Ki, inhibition of [3H] dopamine uptake) was 19.1 µM and 19 µM and the Km (hNET [2]) was 2.6 µM. For the same molecule, the Km (hDAT [3]) was 20 µM.

`CNCC[C@H](Oc1cccc2ccccc12)c1cccs1` [S-duloxetine] gave an inhibition at 0.001 µM [1, 8] of 96.4%, an inhibition at 0.003 µM [1, 8] of 88.9% and an inhibition at 0.01 µM [1, 8] of 85.9%. For the same molecule, the inhibition at 0.03 µM [1, 8] was 77.7%, the inhibition at 0.1 µM [1, 8] was 45% and the inhibition at 0.3 µM [1, 8] was 21.9%. The inhibition at 1 µM (dDATfc A117S/A428S; 0.5 h, read-out: Percent inhibition of DA uptake, A117S_A428S, Log[compound] M = -6, single replicates) was 11.2%, the inhibition at 0.3 µM (dDATfc A117S/A428S; 0.5 h, read-out: Percent inhibition of DA uptake, A117S_A428S, Log[compound] M = -6.52288, single replicates) was 44% and the inhibition at 0.1 µM (dDATfc A117S/A428S; 0.5 h, read-out: Percent inhibition of DA uptake, A117S_A428S, Log[compound] M = -7, single replicates) was 76.7%. For the same molecule, the inhibition at 0.001 µM (dDATfc A117S/A428S; 0.5 h, read-out: Percent inhibition of DA uptake, A117S_A428S, Log[compound] M = -9, single replicates) was 97.8%, the “increase in IC50 values, combination of A428S and A117S” value (dDATfc A117S/A428S; double mutant vs dDATfc) was ~ 3 fold and the Ki (hDAT [4]) was 0.37 µM. It also gave an inhibition at 0.03 µM (dDATfc A117S; [9]) of 96.1%, an inhibition at 0.03 µM (dDATfc A428S; [9]) of 94.4% and an inhibition at 0.1 µM (dDATfc A428S; [9]) of 80.2%. The inhibition at 0.3 µM (dDATfc A428S; [9]) was 45.5%, the inhibition at 1 µM (dDATfc A428S; [9]) was 9.62% and the Ki (hDAT [5]) was 0.23 ± 0.017 µM. The remaining activity at 0.003 µM (dDATmfc) was 86.1% and the remaining activity at 0.1 µM (dDATmfc) was 22.9%.

In the case of `COc1cccc(C2(O)CCCCC2CN(C)C)c1` (stereo not shown) [Tramadol, tramadol], the “greater affinity to NET over DAT” value (hNET [6]; NET over DAT) is given as ~ 50 fold, the IC50 [1] is given as 24.7 ± 2.8 µM and the Ki [1] is given as 15.9 ± 1.8 µM. It also gave an inhibition at 30 µM [1, 8] of 38.5%, an IC50 (dDATfc A117S/A428S) of 130 ± 12.2 µM and an inhibition at 100 µM (dDATfc A117S/A428S; 0.5 h, read-out: Percent inhibition of DA uptake, A117S_A428S, Log[compound] M = -4, single replicates) of 48.1%. For the same molecule, the Ki (dDATNET; Binding Ki with dDATNET (vs. Nisoxetine)) was 5.31 µM and 5.3 µM, the remaining activity at 100 µM (dDATNET; DAT NET, Log Tramadol (M) -4, replicate values, read-out: Percent binding) was 43.3% and the remaining activity at 30 µM (dDATNET; read-out: Percent binding) was 60%. For the same molecule, the remaining activity at 300 µM (dDATNET; read-out: Percent binding) was 17.9%, the remaining activity at 3000 µM (dDATNET; read-out: Percent binding) was 4.79% and the IC50 (dDATfc A117S) was 35.8 ± 2.2 µM. For the same molecule, the inhibition at 100 µM (dDATfc A117S; 0.5 h, A117S, Log[compound] M = -4, single replicates, read-out: Percent inhibition of DA uptake) was 29.4%, the inhibition at 1 µM (dDATfc A117S; 0.5 h, A117S, Log[compound] M = -6, single replicates, read-out: Percent inhibition of DA uptake) was 105% and the inhibition at 3 µM (dDATfc A117S; [9]) was 105%. The inhibition at 30 µM (dDATfc A117S; [9]) was 61.3%, the inhibition at 300 µM (dDATfc A117S; [9]) was 13.1% and the inhibition at 3000 µM (dDATfc A117S; [9]) was 3.78%. The IC50 (dDATfc A428S) was 50.5 ± 5.4 µM, the inhibition at 100 µM (dDATfc A428S; 0.5 h, A428S, Log[compound] M = -4, single replicates, read-out: Percent inhibition of DA uptake) was 32.2% and the inhibition at 1 µM (dDATfc A428S; 0.5 h, A428S, Log[compound] M = -6, single replicates, read-out: Percent inhibition of DA uptake) was 92.4%. For the same molecule, the inhibition at 300 µM (dDATfc A428S; [9]) was 11.6%, the remaining activity at 1000 µM (dDATmfc; DATmfc, Log Tramadol (M) -3, replicate values) was 6.84% and the remaining activity at 100 µM (dDATmfc; DATmfc, Log Tramadol (M) -4, replicate values) was 23.9%. For the same molecule, the remaining activity at 10 µM (dDATmfc; DATmfc, Log Tramadol (M) -5, replicate values) was 74.2%, the remaining activity at 1 µM (dDATmfc; DATmfc, Log Tramadol (M) -6, replicate values) was 91.4% and the remaining activity at 3 µM (dDATmfc) was 91%. It also gave a remaining activity at 30 µM (dDATmfc) of 44%.

For `CN(C)C[C@H]1CCCC[C@]1(O)c1cccc(O)c1` [desmetramadol, O-desmethyl tramadol], the IC50 (hNET [6]; read-out: IC50, inhibition of hNET) is listed as 6 µM.

From publication PMC8044178, “Structural basis of norepinephrine recognition and transport inhibition in neurotransmitter transporters” (Nature Communications, 2021)
